Results from patent publication US12122750B2, “AT2R antagonists and uses thereof” (Eli Lilly and Company, priority 2022, dated 2024).

The compounds below were run against recombinant human angiotensin-II receptor subtype 2 (hAT2R) (Homo sapiens (Human), UniProt P50052) (assay: Competitive radioligand binding assay (SPA), hAT2R HEK293 membranes). Details: [125I]-Tyr4-Angiotensin-II, read-out: AT2R Ki.
Procedure: Compound Solubilization Test and reference compounds were received as dry powder reagents, weighed, and solubilized in 100% DMSO to generate a working stock concentration of 10 mM. Membrane Preparation Protocol (hAT2R HEK293 and rAT2R HEK293) hAT2R membranes were prepared from human embryonic kidney (HEK293) cells which were stably transfected with recombinant human angiotensin-II receptor subtype 2 (hAT2R). Cells from the stable cell lines were expanded in tissue culture flasks to generate a large population of cells; cell pellet (>1 gm), and these cell pellets were stored frozen prior to initiating this membrane isolation procedure for each receptor isoform. Frozen cell pellets were thawed in ice-cold homogenization/resuspension buffer (50 mM Tris-HCl, pH 7.5) containing one Complete© protease inhibitor tablet with EDTA (Roche Diagnostics) per 50 mL buffer, and cell pellet was resuspended at a ratio of 10 mL homogenization buffer to gram of starting cell pellet. Cell suspension was homogenized with an overhead motor-driven Teflon-glass homogenizer using 15 to 20 strokes, followed by centrifugation at 1100×g for 10 minutes at 4° C. The supernatant was saved on ice, pellets were homogenized as before, and centrifuged at 1100×g for 10 minutes at 4° C. Both supernatants were combined and subsequently centrifuged at 35,000×g for 60 minutes at 4° C. The final centrifugation pellet (pellet 2) containing the isolated membranes was resuspended in buffer (4 to 5 mL/g of starting cell paste) containing protease inhibitors and quick frozen in liquid nitrogen prior to storage at -80° C. Protein concentration was determined using a BCA kit (ThermoScientific, Inc.) with bovine serum albumin (BSA) as standard. […] The assays were performed with a scintillation proximity assay (SPA) method using polyvinyltoluene (PVT) wheat germ agglutinin-coupled SPA beads (Perkin Elmer Cat. #RPNQ0001). Assay buffer containing BSA (50 mM Tris-HCl, pH 7.5, 150 mM NaCl, 0.1% w/v fatty-acid free BSA) was used for preparing radioligand, membrane and SPA bead reagent dilution to working stock concentrations. Reference control and test compounds were diluted to obtain ten-point concentration response curves using a four-fold serial dilution protocol onto assay plates, dispensed acoustically from DMSO stock using automated ECHO instrument technology (Labcyte, Inc.). Concentration response curves were routinely generated with the highest final assay concentration for the reference angiotensin-II control at 50 nM, and the highest final assay concentration for the test compounds at 50 μM. […] The hAT2R membrane was combined with PVT-WGA SPA beads to obtain a final assay concentration of 0.25 μg/well hAT2R membrane+0.1 mg/well PVT-WGA SPA bead. And the hAT1R membrane PVT-WGA SPA bead final concentrations was 0.5 μg/well hAT1R membrane+0.1 mg/well PVT-WGA SPA bead. […] For all assays, radioligand addition was followed by the addition of membrane-SPA bead mixture, i.e., the hAT2R membrane-SPA bead mixture (30 μL), the rAT2R membrane-SPA bead mixture, or the AT1R membrane-SPA bead mixture (30 μL) into the assay plate. All dispensing steps were added using a Multiflo FX (Biotek, Inc.) bulk dispensing instrument. After reagent addition steps, assay plates were sealed, and plate contents mixed for one minute on a benchtop micro-plate shaker. Following a 10-hour incubation at room temperature to allow for bead settling and radioligand binding, bound radioactivity was quantitated using a Microbeta Trilux scintillation counter (Perkin Elmer) and expressed as counts per minute (CPM). The unlabeled angiotensin-II control was included on each plate as an experimental assay reference. […] Data Analysis Procedures Compounds were tested in a 10-point concentration response curve (CRC) format, with each plate containing the positive control angiotensin-II positive reference compound, and experimental compounds.

Chain of recombinant human angiotensin-II receptor subtype 2 (hAT2R) (P50052 whole entry): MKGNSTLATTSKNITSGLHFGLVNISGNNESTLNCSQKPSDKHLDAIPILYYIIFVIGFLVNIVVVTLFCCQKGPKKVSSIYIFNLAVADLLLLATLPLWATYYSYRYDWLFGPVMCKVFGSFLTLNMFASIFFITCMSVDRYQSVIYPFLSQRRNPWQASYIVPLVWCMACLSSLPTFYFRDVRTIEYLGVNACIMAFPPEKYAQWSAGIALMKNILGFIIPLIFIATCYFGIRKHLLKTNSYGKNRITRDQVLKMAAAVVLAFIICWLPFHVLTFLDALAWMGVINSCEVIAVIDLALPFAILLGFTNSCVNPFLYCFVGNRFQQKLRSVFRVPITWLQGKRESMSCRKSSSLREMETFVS

| Ki [nM] | Structure (SMILES) |
| --- | --- |
| 7.82 | O=C(N1CCC(CC(=O)N(c2ccccc2)c2cccc(F)c2)(C(=O)O)CC1)N1CCc2ccccc21 [Example 57, 4-[2-(N-(3-fluorophenyl)anilino)-2-oxo-ethyl]-1-(indoline-1-carbonyl)piperidine-4-carboxylic acid] |
| 0.58 | CN(C(=O)N1CCC(CC(=O)N(c2ccccc2F)C2CCCC(F)(F)C2)(C(=O)O)CC1)c1ccccc1 (racemic) [Example 52, 4-[2-(N-(3,3-difluorocyclohexyl)-2-fluoro-anilino)-2-oxo-ethyl]-1-[methyl(phenyl)carbamoyl]piperidine-4-carboxylic acid] |
| 1.89 | CN(C(=O)N1CCC(CC(=O)N(c2ccccc2)c2ccc(Cl)cc2)(C(=O)O)CC1)c1ccc(F)cc1 [compound 31, -[2-(N-(4-chlorophenyl)anilino)-2-oxo-ethyl]-1-[(4-fluorophenyl)-methyl-carbamoyl]piperidine-4-carboxylic acid] |
| 1.76 | O=C(CC1(C(=O)O)CCN(C(=O)N(c2ccc(F)cc2)C2CC2)CC1)N(c1ccccc1)C1CCCCC1 [Example 16, 4-[2-(N-cyclohexylanilino)-2-oxo-ethyl]-1-[cyclopropyl-(4-fluorophenyl)carbamoyl]piperidine-4-carboxylic acid] |
| 3.73 | O=C(N1CCC(CC(=O)N(c2ccc(F)cc2)c2ccccc2F)(C(=O)O)CC1)N1CCc2ccccc21 [Example 61, 4-[2-(4-fluoro-N-(2-fluorophenyl)anilino)-2-oxo-ethyl]-1-(indoline-1-carbonyl)piperidine-4-carboxylic acid] |
| 0.774 | CN(C(=O)N1CCC(CC(=O)N(c2ccccc2)c2cccc(F)c2)(C(=O)O)CC1)c1ccc(F)cc1 [compound 24, 4-[2-(N-(3-fluorophenyl)anilino)-2-oxo-ethyl]-1-[(4-fluorophenyl)-methyl-carbamoyl]piperidine-4-carboxylic acid] |
| 16.6 | CN(C(=O)N1CCC(CC(=O)N(c2ccccc2)C2CCCOC2)(C(=O)O)CC1)c1ccc(F)cc1 (racemic) [Example 41, 1-[(4-fluorophenyl)-methyl-carbamoyl]-4-[2-oxo-2-(N-tetrahydropyran-3-ylanilino)ethyl]piperidine-4-carboxylic acid] |
| 1.19 | CC(C(=O)N1CCC(CC(=O)N(c2ccccc2)C2CCCC(F)(F)C2)(C(=O)O)CC1)c1cccc(F)c1 (racemic) [Example 63, 4-[2-(N-(3,3-difluorocyclohexyl)anilino)-2-oxo-ethyl]-1-[2-(3-fluorophenyl)propanoyl]piperidine-4-carboxylic acid] |
| 1.94 | N#Cc1ccc2c(c1)N(C(=O)N1CCC(CC(=O)N(c3ccccc3)C3CCCCC3)(C(=O)O)CC1)CC2 [Example 33, 1-(6-cyanoindoline-1-carbonyl)-4-[2-(N-cyclohexylanilino)-2-oxo-ethyl]piperidine-4-carboxylic acid] |
| 1.55 | CN(C(=O)N1CCC(CC(=O)N(c2ccccc2)C2CCCOC2)(C(=O)O)CC1)c1ccc(C2CC2)cc1 (single isomer, unassigned) [Example 45A, 1-[(4-cyclopropylphenyl)-methyl-carbamoyl]-4-[2-oxo-2-(N-tetrahydropyran-3-ylanilino)ethyl]piperidine-4-carboxylic acid] |
| 0.987 | Cc1ccccc1N(C(=O)CC1(C(=O)O)CCN(C(=O)N(C)c2ccc(F)cc2)CC1)c1ccccc1 [Example 37, 1-[(4-fluorophenyl)-methyl-carbamoyl]-4-[2-[N-(o-tolyl)anilino]-2-oxo-ethyl]piperidine-4-carboxylic acid] |
| 2.93 | CC(C1CC1)N(C(=O)CC1(C(=O)O)CCN(C(=O)N(C)c2ccc(F)cc2)CC1)c1ccccc1 (racemic) [Example 43, 4-[2-[N-(1-cyclopropylethyl)anilino]-2-oxo-ethyl]-1-[(4-fluorophenyl)-methyl-carbamoyl]piperidine-4-carboxylic acid] |
| 9.86 | O=C(N1CCC(CC(=O)N(c2ccccc2)c2ccc(F)cc2)(C(=O)O)CC1)N1CCc2ccccc21 [Example 58, 4-[2-(N-(4-fluorophenyl)anilino)-2-oxo-ethyl]-1-(indoline-1-carbonyl)piperidine-4-carboxylic acid] |
| 3.14 | O=C(N1CCC(CC(=O)N(c2ccccc2)C2CCCC(F)(F)C2)(C(=O)O)CC1)N1CCc2c(F)cccc21 (racemic) [Example 71, 4-[2-(N-(3,3-difluorocyclohexyl)anilino)-2-oxo-ethyl]-1-(4-fluoroindoline-1-carbonyl)piperidine-4-carboxylic acid] |
| 2.99 | O=C(N1CCC(CC(=O)N(c2ccccc2)c2ccccc2F)(C(=O)O)CC1)N1CCc2ccccc21 [Example 56, 4-[2-(N-(2-fluorophenyl)anilino)-2-oxo-ethyl]-1-(indoline-1-carbonyl)piperidine-4-carboxylic acid] |
| 2.55 | O=C(Cc1ccccc1F)N1CCC(CC(=O)N(c2ccccc2)C2CCCC(F)(F)C2)(C(=O)O)CC1 (racemic) [Example 65, 4-[2-(N-(3,3-difluorocyclohexyl)anilino)-2-oxo-ethyl]-1-[2-(2-fluorophenyl)acetyl]piperidine-4-carboxylic acid] |
| 9.15 | O=C(CC1(C(=O)O)CCN(c2ncncc2C2CC2)CC1)N(c1ccccc1)c1ccccc1 [Example 5, 1-(5-cyclopropylpyrimidin-4-yl)-4-(2-(diphenylamino)-2-oxoethyl)piperidine-4-carboxylic acid] |
| 3.11 | Cc1ccc(N(C(=O)CC2(C(=O)O)CCN(C(=O)N(C)c3ccc(F)cc3)CC2)c2ccccc2)cc1 [compound 29, 1-[(4-fluorophenyl)-methyl-carbamoyl]-4-[2-oxo-2-[N-(p-tolyl)anilino]ethyl]piperidine-4-carboxylic] |
| 8.14 | O=C(N1CCC(CC(=O)N(c2ccccc2)C2CCCC(F)(F)C2)(C(=O)O)CC1)N1CCc2ccc(F)cc21 (single isomer, unassigned) [Example 72A, 4-[2-(N-(3,3-difluorocyclohexyl)anilino)-2-oxo-ethyl]-1-(6-fluoroindoline-1-carbonyl)piperidine-4-carboxylic acid] |
| 3.03 | O=C(N1CCC(CC(=O)N(c2ccccc2)C2CCCC(F)(F)C2)(C(=O)O)CC1)N1CCc2cccc(F)c21 (racemic) [Example 73, 4-[2-(N-(3,3-difluorocyclohexyl)anilino)-2-oxo-ethyl]-1-(7-fluoroindoline-1-carbonyl)piperidine-4-carboxylic acid] |
| 1.69 | CCN(C(=O)N1CCC(CC(=O)N(c2ccccc2)C2CCCCC2)(C(=O)O)CC1)c1ccc(F)cc1 [Example 15, 4-[2-(N-cyclohexylanilino)-2-oxo-ethyl]-1-[ethyl-(4-fluorophenyl)carbamoyl]piperidine-4-carboxylic acid] |
| 1.56 | CN(C(=O)N1CCC(CC(=O)N(c2ccccc2)C2CCCCC2(F)F)(C(=O)O)CC1)c1ccc(F)cc1 (racemic) [Example 10, 4-[2-(N-(2,2-difluorocyclohexyl)anilino)-2-oxo-ethyl]-1-[(4-fluorophenyl)-methyl-carbamoyl]piperidine-4-carboxylic acid] |
| 4.01 | CN(C(=O)N1CCC(CC(=O)N(c2ccc(F)cc2)C2CCCCC2)(C(=O)O)CC1)c1ccc(F)cc1 [compound 21, 4-[2-(N-cyclohexyl-4-fluoro-anilino)-2-oxo-ethyl]-1-[(4-fluorophenyl)-methyl-carbamoyl]piperidine-4-carboxylic acid] |
| 1.04 | CC(C(=O)N1CCC(CC(=O)N(c2ccccc2)C2CCCC(F)(F)C2)(C(=O)O)CC1)c1ccc(F)cc1 (racemic) [Example 62, 4-[2-(N-(3,3-difluorocyclohexyl)anilino)-2-oxo-ethyl]-1-[2-(4-fluorophenyl)propanoyl]piperidine-4-carboxylic acid] |
| 3.94 | CC(C)(C)OC(=O)N1CCC(CC(=O)N(c2ccccc2)C2CCCC(F)(F)C2)(C(=O)O)CC1 (single isomer, unassigned) [compound 42] |
